Structures can show the parent of a compound that is named as a salt.
Tests used:
SAMD9 = SAMD9 RNA expression by qRT-PCR in HeLa cells; type: cell-based, human; conditions: fold increase in RNA gene expression vs cells treated with vehicle only
Protocol: HeLa cells were cultured in DMEM 4.5 g/l glucose medium containing 10% FCS, 1% L-glutamine and 1% penicillin and streptomycin (Biological Industries) and grown at 37° C. and 5% CO2.
Of note, when cells were incubated with CaCx and ApDx (NCI, MA USA), they were grown in the appropriate medium with 0.1% FCS only.
RNA was extracted from cell cultures using an RNA extraction kit (Roche Diagnostics, Mahheim, Germany). cDNA was synthesized from 500 ng of total RNA using the Verso cDNA kit (Thermo Fisher Scientific, Waltham, MA, USA). cDNA PCR amplification was carried out using the Fast SYBR Green Master Mix in a StepOnePlus™ Real-Time PCR System (Applied Biosystems, Foster City, CA, USA) with gene-specific intron-crossing oligonucleotide pairs listed in Table 1 (below). For quantification, standard curves were obtained using serially diluted cDNA amplified in the same qRT-PCR run. The melting temperature (Tm) of the amplified products was measured to confirm the specificity of the reaction conditions. Cycling conditions were as follows: 95° C. for 10 minutes, 95° C. for 10 seconds, 62° C. for 15 seconds, and 72° C. for 25 seconds for a total of 40 cycles. Each sample was analyzed in triplicate. mRNA expression level for target gene was normalized to GAPDH. The results are based the amount of target, normalized to an endogenous reference (IACTB) and relative to a calibrator, as calculated by 2-ΔΔCT. All samples were run in triplicate. The expression levels of target genes were expressed as mRNA relative units.
The potential ability of these 31 molecules to induce SAMD9 expression in cell cultures was then scrutinized.

SAMD9 promoter = assay: High-throughput luciferase reporter screen in HeLa line stably expressing 585 bp SAMD9 promoter fragment; type: cell-based, human; conditions: fold increase in promoter activity by luciferase assay vs cells treated with vehicle only, test drugs 10 μM, 24 hours; for fold induction at 10 µM: Homo sapiens, HeLa, read-out: SAMD9 expression fold change in HeLa reporter assay
Protocol: HeLa cell lines stably expressing the constructs were generated under neomycin selection. Briefly, pGL4.17 containing a SAMD9 promoter fragment spanning 585 bp upstream to the TSS and an empty pGL4.17 vector were transfected into HeLa cells. Forty eight hours after transfection, standard medium was replaced with medium containing 600 μg/ml G418 (Sigma-Aldrich), cells were kept under G418 selection and the selective medium was replaced approximately every 2-3 days. After two passages, colonies of stable cells were isolated, expanded and frozen for further use.
Test drugs were dispensed at a concentration of 10 μM by a robotic system into 96-well plates containing 9000 cells/well expressing the pGL4.17 reporter construct carrying a 585 bp SAMD9 promoter fragment operably linked to luciferase gene or the empty pGL4.17 luciferase construct (Promega cat. no. E6721). Medium was removed after 24 hours and the cells subjected to Steady-Glo luciferase lysis-substrate solution assay (Promega) as described above. Liquid handling was done with the Tecan (Tecan) Freedom 150 (Robotic & MCA liquid Handling System) and the luciferase reading was done with a robot integrated Tecan Infinite® M1000 reader.
This cell line was then used to robotically screen a total of 1496 compounds obtained from the National Cancer Institute Diversity Set III and Oncology Drugs Set III small molecule libraries.

With `CN(C)c1ccc(/C=C2\Cc3ccccc3C2=O)cc1Br` [Compound 643163, 2-(3-Bromo-4-dimethylaminobenzylidene)-1-indanone] the “SAMD9 expression fold change in HeLa cells” value (SAMD9) was 0.79 fold and the fold induction at 10 µM (SAMD9 promoter) was 2.64.

For `S=C(Nc1nnc(-c2ccccc2)c(-c2ccccc2)n1)N(/N=C/C=C/c1ccccc1)c1ccccc1` [Compound 640637, 3-Phenylacrylaldehyde N′-(5,6-diphenyl-1,2,4-triazin-3-yl)-N-phenylthiosemicarbazone], the “SAMD9 expression fold change in HeLa cells” value (SAMD9) was 1.16 fold and the fold induction at 10 µM (SAMD9 promoter) was 2.32.

With `N#CC(NCc1cccc(CNC(C#N)c2ccccc2)c1)c1ccccc1` (stereo not drawn) [Compound 681730, 2,2′-(1,3-phenylenebis (methylene))bis(azanediyl)bis(2-phenylacetonitrile)] the “SAMD9 expression fold change in HeLa cells” value (SAMD9) was 1.6 fold and the fold induction at 10 µM (SAMD9 promoter) was 2.48.

For `Nc1ncnc2c1nc(Cl)n2[C@@H]1O[C@@H]2COP(=O)(O)O[C@H]2[C@H]1O` [Compound 284751, Adenosine, 8-chloro-, cyclic 3′,5′-(hydrogen phosphate)], the “SAMD9 expression fold change in HeLa cells” value (SAMD9) was 0.87 fold and the fold induction at 10 µM (SAMD9 promoter) was 2.14.

With `COc1ccc(/C(=N\O)C(c2ccc(OC)cc2)C2C(=O)Oc3ccccc32)cc1` (stereo not drawn) [Compound 641607, 3-(2-(Hydroxyimino)-1,2-bis(4-methoxyphenyl)ethyl)-1-benzofuran-2(3H)-one] the “SAMD9 expression fold change in HeLa cells” value (SAMD9) was 1.27 fold and the fold induction at 10 µM (SAMD9 promoter) was 3.25.

For `COc1ccc(/C=C2\Cc3ccccc3C2=O)cc1OC` [Compound 643174, 2-(3,4-Dimethoxybenzylidene)-1-indanone], the “SAMD9 expression fold change in HeLa cells” value (SAMD9) was 1.29 fold and the fold induction at 10 µM (SAMD9 promoter) was 2.17.

In the case of `COc1c2c(cc3oc(=O)ccc13)OC(C)(C)C=C2` [Compound 35542, Xanthoxylin N], the “SAMD9 expression fold change in HeLa cells” value (SAMD9) is reported as 4.71 fold and the fold induction at 10 µM (SAMD9 promoter) is reported as 4.08.

For `O=C(c1nc2ccc(Cl)cc2nc1O)C(O)c1ccc2c(c1)OCO2` (stereo not drawn) [Compound 642649, 2-(1,3-Benzodioxol-5-yl)-1-(6-chloro-3-hydroxy-2-quinoxalinyl)-2-hydroxyethanone], the “SAMD9 expression fold change in HeLa cells” value (SAMD9) was 0.85 fold and the fold induction at 10 µM (SAMD9 promoter) was 2.8.

`COc1cc2c3c(n(C)c(=O)c2cc1OC)-c1cc2c(cc1C3=O)OCO2` [Compound 314622, 5H-[1,3]Dioxolo[5,6]indeno[1,2-c]isoquinoline-5,12-dione, 2,3-dimethoxy-6-methyl-] was tested, and the “SAMD9 expression fold change in HeLa cells” value (SAMD9) was 2.51 fold and the fold induction at 10 µM (SAMD9 promoter) was 2.31.

With `OC(CN1CCCCC1)c1ccc(/C=C/c2ccc(Cl)cc2)cc1` (stereo not drawn) [Compound 26040] the “SAMD9 expression fold change in HeLa cells” value (SAMD9) was 1.2 fold and the fold induction at 10 µM (SAMD9 promoter) was 3.38.

In the case of `CN(C)C(=S)/N=c1\ss/c(=N\C(=S)N(C)C)n1-c1ccc2c(c1)OCO2` [Compound 622589, 3,3′-[4-(1,3-benzodioxol-5-yl)-1,2,4-dithiazolidine-3,5-diylidene]bis[1,1-dimethyl(thiourea)]], the “SAMD9 expression fold change in HeLa cells” value (SAMD9) is reported as 1.17 fold and the fold induction at 10 µM (SAMD9 promoter) is reported as 4.32.

For `Cc1c2cnccc2c(C)c2c1c1ccccc1n2CCOC(=O)c1ccccc1` [Compound 163443, 2-(5,11-dimethyl-6H-pyrido [4,3-b]carbazol-6-yl) ethyl benzoate], the “SAMD9 expression fold change in HeLa cells” value (SAMD9) was 6.49 fold and the fold induction at 10 µM (SAMD9 promoter) was 2.24.

`CC[C@@]1(O)C[C@H](OC2CC(N(C)C)C(OC3CC(O)C(CC4CC(O)C(O)C(C)O4)C(C)O3)C(C)O2)c2c(cc3c(c2O)C(=O)c2c(O)ccc(O)c2C3=O)[C@H]1C(=O)OC` (stereo partly drawn) [Compound 265211, Rhodirubin E] was tested, and the “SAMD9 expression fold change in HeLa cells” value (SAMD9) was 1.47 fold and the fold induction at 10 µM (SAMD9 promoter) was 3.36.

For `C[C@@H](CSC(=O)c1ccccc1)C(=O)N1c2ccccc2C[C@@H]1C(=O)O` [Compound 604535, (2R)-1-[(2R)-2-methyl-3-phenylcarbonylsulfanyl-propanoyl]-2,3-dihydroindole-2-carboxylic acid], the “SAMD9 expression fold change in HeLa cells” value (SAMD9) was 1.07 fold and the fold induction at 10 µM (SAMD9 promoter) was 2.26.

For `Cc1cc(Cl)ccc1N1C(=O)C(=O)C(c2nc3ccccc3o2)C(=O)C1=O` [Compound 623051, 4-(1,3-Benzoxazol-2-yl)-1-(4-chloro-2-methylphenyl)-2,3,5,6-piperidinetetrone], the “SAMD9 expression fold change in HeLa cells” value (SAMD9) was 0.97 fold and the fold induction at 10 µM (SAMD9 promoter) was 2.74.

`COc1cccc2c1C(=O)c1c(O)c3c(c(O)c1C2=O)C[C@@](O)(C(C)=O)C[C@@H]3O[C@H]1C[C@H](N(Cc2ccccc2)Cc2ccccc2)[C@H](O)[C@H](C)O1` [Compound 268242, N,N-Dibenzyldaunorubicin hydrochloride] was tested, and the “SAMD9 expression fold change in HeLa cells” value (SAMD9) was 3.66 fold and the fold induction at 10 µM (SAMD9 promoter) was 4.84.

`CN(CCc1ccccn1)c1ccc2c(c1)C(=O)c1ccccc1-2` [Compound 24048, 2-(methyl(2-(2-pyridinyl)ethyl)amino)-9H-fluoren-9-one] was tested, and the “SAMD9 expression fold change in HeLa cells” value (SAMD9) was 1.62 fold and the fold induction at 10 µM (SAMD9 promoter) was 2.84.

For `COc1ccc(-c2csc(=[N+]3CCCCC3)s2)cc1` [Compound 302358, Piperidinium, 1-[4-(4-methoxyphenyl)-1,3-dithiol-2-ylidene]-, sulfate (1:1)], the “SAMD9 expression fold change in HeLa cells” value (SAMD9) was 0.84 fold and the fold induction at 10 µM (SAMD9 promoter) was 2.72.

With `Cc1cccc(NC(=O)C=Cc2ccc([N+](=O)[O-])cc2)c1` [Compound 139109, N-(3-methylphenyl)-3-(4-nitrophenyl)acrylamide] the “SAMD9 expression fold change in HeLa cells” value (SAMD9) was 0.72 fold and the fold induction at 10 µM (SAMD9 promoter) was 2.03.

In the case of `NC(Cc1ccc2oc3cc(=O)c4ccccc4c-3nc2c1)C(=O)O` [Compound 672425, 1,2-Benzo-8-(L-alanyl)-3-phenoxazone nitrate salt], the “SAMD9 expression fold change in HeLa cells” value (SAMD9) is reported as 0.98 fold and the fold induction at 10 µM (SAMD9 promoter) is reported as 2.11.

In the case of `CCN(CC)CCOc1ccccc1/C=C/c1noc2ccccc12` [Compound 601101, 2-(2-(2-(1,2-Benzisoxazol-3-yl)vinyl)phenoxy)-N,N-diethylethanamine hydrochloride], the fold induction at 10 µM (SAMD9 promoter) is reported as 2.13.

`COc1ccc2c(c1[N+](=O)[O-])CC[C@@H]1[C@@H]2CC[C@]2(C)C(=O)CC[C@@H]12` [Compound 321803, 4-Nitroestrone 3-methyl ether] was tested, and the “SAMD9 expression fold change in HeLa reporter assay” value (SAMD9 promoter) was 2.71 fold.

In the case of `CN(C)c1ccc2c(SCC(=O)OCC(=O)[C@@]3(O)CC[C@H]4[C@@H]5CCC6=CC(=O)C=C[C@]6(C)[C@H]5C(=O)C[C@@]43C)c3ccc(N(C)C)cc3nc2c1` [Compound 337851, Predorine], the “SAMD9 expression fold change in HeLa cells” value (SAMD9) is reported as 1.23 fold and the fold induction at 10 µM (SAMD9 promoter) is reported as 2.37.

`O=C1Oc2ccccc2C(=O)/C1=C1/C=C(c2ccccc2)SS1` [Compound 293927, (3E)-3-(5-phenyl-3H-1,2-dithiol-3-ylidene)-2H-chromene-2,4(3H)-dione] was tested, and the “SAMD9 expression fold change in HeLa cells” value (SAMD9) was 1.77 fold and the fold induction at 10 µM (SAMD9 promoter) was 2.82.

`CCN(CC)CCNc1ccc2nc(C)n3c4ccc(OC)cc4c(=O)c1c23.Cl` [Compound 637993, 5-{[2-(diethylamino)ethyl]amino}-8-methoxy-1-methyl-6h-imidazo[4,5,1-de] acridin-6-one hydrochloride (1:1)] was tested, and the “SAMD9 expression fold change in HeLa cells” value (SAMD9) was 6.34 fold and the fold induction at 10 µM (SAMD9 promoter) was 3.7.

In the case of `COc1ccc(/C=C2\CCc3ccccc3C2=O)cc1OC` [Compound 643175, 2-(3,4-Dimethoxybenzylidene)-1-tetralone], the “SAMD9 expression fold change in HeLa cells” value (SAMD9) is reported as 0.89 fold and the fold induction at 10 µM (SAMD9 promoter) is reported as 2.47.

In the case of `CCN1C(=O)/C(=C\Nc2ccccc2)S/C1=N\Nc1ncc(CC(=O)Nc2ccccc2C)s1` [Compound 658350, 2-(2-(2-(5-(Anilinomethylene)-3-ethyl-4-oxo-1,3-thiazolidin-2-ylidene)hydrazino)-1,3-thiazol-5-yl)-N-(2-methylphenyl) acetamide], the “SAMD9 expression fold change in HeLa cells” value (SAMD9) is reported as 1.01 fold and the fold induction at 10 µM (SAMD9 promoter) is reported as 2.03.

`O=C1C(O)=C(CC=C(Cl)Cl)C(=O)c2ccccc21` [Compound 126771, Dichlorolawsone] was tested, and the “SAMD9 expression fold change in HeLa cells” value (SAMD9) was 3.27 fold and the fold induction at 10 µM (SAMD9 promoter) was 2.23.

Source: patent US12023348B2, “EGR1 targeting molecules for the treatment of inflammatory and hyperproliferative conditions” (The Medical Research, Infrastructure and Health Services …, priority 2015, dated 2024)
